Laboratory results from paper PMC6449294, “SNAPshots of the MCHR1: a Comparison Between the PET-Tracers [^18F]FE@SNAP and [^11C]SNAP-7941” (Molecular Imaging and Biology, 2018).
Like-named read-outs stand apart in the source and are kept apart here.

Tests used:
[1] = test system: P-gp/BCRP; test: Small animal PET of rat brain, vehicle vs pretreatment with P-gp/BCRP inhibitor TQD; format: in vivo; details: for increase of brain uptake in TQD blocking group vs vehicle: rats, TQD 15 mg/kg 60 min before radiotracer, PET
Method: (§1) Ten-week-old male rats (412 ± 58 g, Sprague-Dawley, HIM:OFA, n = 30) and 12-week-old male mice (24 ± 6 g, BALB/cAnNRj, n = 7) were purchased from the Division of Laboratory Animal Science and Genetics, Himberg, Austria. Animals were kept under conventional housing conditions (22 ± 1 °C; 40–70 % humidity) with food and water supply ad libitum and 12-h day/night cycle. All animals were treated according to the European Union rules on animal care and respective animal experiments were approved by the Austrian Ministry of Sciences, Research and Economy (BMWFW-66.009/0029-WF/V/3b/20159). For in vivo imaging, animals were anesthetized using 1.5–2 % isoflurane mixed with oxygen (1.5–2 l/min) to avoid movement during the examination. Anesthesia as well as vital parameters were monitored during the time interval of PET acquisition. Radioligands and non-labeled compounds were administered intravenously via the lateral tail vein.
Anesthetized rats and mice were immobilized in a multimodal animal carrier unit (MACU; medres®—medical research GmbH, Cologne, Germany). The body temperature was preserved at 37 °C throughout the whole experiment. Rats received either [^11C]SNAP-7941 or [^18F]FE@SNAP, followed by an injection of (±)-SNAP-7941 (15-mg/kg body weight; displacement study; n = 4 for each radiotracer) or the respective solvent serving as the vehicle (baseline condition; n = 4 for each radiotracer). The MCHR1 antagonist, (±)-SNAP-7941, and the vehicle were administered either 15 ([^11C]SNAP-7941) or 20 min ([^18F]FE@SNAP) after the radiotracer application via the lateral tail vein. To investigate a potential binding to the P-glycoprotein (P-gp) and/or breast cancer resistance protein (BCRP) brain efflux transporter system, rats as well as mice were pretreated either with the P-gp/BCRP inhibitor TQD (15 mg/kg body weight; P-gp/BCRP inhibition group; rats: n = 4 for each radiotracer; mice: n = 4 for [^18F]FE@SNAP) or the respective solvent (baseline condition; rats: n = 3 for each radiotracer; mice: n = 3 for [^18F]FE@SNAP)). […]

[2] = parameters: method as in PMID 23829932, PMID 24106662, PMID 27033361; details: result in words, not determined in this paper for this tracer; cited from earlier work
[3] = Ex vivo metabolites in rat brain (radio-HPLC)
Method: For the analysis of potential radiometabolites, blood samples (50–80 μl) from rats were withdrawn at 10 and 45 min for [^11C]SNAP-7941 and at 10, 30, and 60 min for [^18F]FE@SNAP and immediately subjected to the equivalent amount of acetonitrile, homogenized, and stored on ice before processing. Additionally, [^18F]FE@SNAP was administered to three rats, which were sacrificed after 45 min. Whole brains were harvested and homogenized with equivalent amounts (500–800 μl) of acetonitrile and 0.9 % saline solution using an ULTRA-TURRAX® (T25 basic, IKA Laboratory Equipment, Staufen, Germany). Subsequently, blood and brain were centrifuged (23,000 ×g, 4 min, 4 °C; Hettich Universal 30RF, Tuttlingen, Germany), and the obtained supernatant was analyzed by an analytical HPLC equipped with a radioactivity detector (radio-HPLC) (stationary phase: Chromolith® Performance RP-18e, 100–4.6 mm; precolumn: Chromolith® Guard Cartridge RP-18e, 5–4.6 mm; Merck, Darmstadt, Germany), mobile phase: (water/acetic acid 97.5/2.5 v/v; 2.5 g/l ammonium acetate; pH 3.5)/acetonitrile 70/30 v/v; flow: 1 ml/min, λ = 254 nm). The ratio between metabolite and intact radiotracer was calculated using quantitative HPLC analysis.

[4] = test system: P-gp/BCRP; test: Small animal PET of mouse brain, vehicle vs pretreatment with P-gp/BCRP inhibitor TQD; format: in vivo; details: mice, TQD 15 mg/kg 30 min before radiotracer
Method: as §1
Anesthetized rats and mice were immobilized in a multimodal animal carrier unit (MACU; medres®—medical research GmbH, Cologne, Germany). The body temperature was preserved at 37 °C throughout the whole experiment. […]

Compound	P-gp/BCRP substrate status ([1]; rat brain PET after TQD pretreatment, result in words)	increase of brain uptake in TQD blocking group vs vehicle [1]	Metabolism in rat brain [2]	intact tracer in rat brain ([3]; 45 min)	Metabolism in rat brain ([3]; ex vivo, result in words)	increase of brain uptake in TQD blocking group vs vehicle [4]
COCC1=C(C(=O)O[11CH3])C(c2ccc(F)c(F)c2)N(C(=O)NCCCN2CCC(c3cccc(NC(C)=O)c3)CC2)C(=O)N1 (stereo not shown) [[^11C]SNAP-7941]	P-gp/BCRP substrate	3.04 times	Stable	–	–	–
COCC1=C(C(=O)OCC[18F])C(c2ccc(F)c(F)c2)N(C(=O)NCCCN2CCC(c3cccc(NC(C)=O)c3)CC2)C(=O)N1 (stereo not shown) [[^18F]FE@SNAP]	–	2.45 times	–	22.37 ± 5.8%	Rapidly metabolized	1.93 fold
